SMILES strings stand for the structures.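 Values below derive from 48-hour exposures of cells grown in 96-well plates, with endpoints linearly interpolated between the two concentrations bracketing the appropriate inhibition level. GI50: concentration for 50% inhibition of growth.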 Calls of active or inactive are those of the source. No stated cut-off is given here; in the data, active = GI50 up to about 1.1 µM and inactive = higher.

From ChEMBL document CHEMBL1201862, “PubChem BioAssay data set” (2004) come the findings set out here.

Among the test systems are A549; ACHN; EKVX; HCT-15; HL-60; IGROV-1; KM12; MOLT-4; Malme-3M; NCI-H23; NCI-H460; OVCAR-8; RPMI-8226; SF-539; SK-MEL-5; SNB-75; SW-620; U-251; UACC-62; SK-MEL-28.
Common to all, as to experiment: NCI anticancer screen, dose series, 48 h

With `N=S(=O)(c1ccccc1)c1ccccc1[N+](=O)[O-]` (centres undefined), the GI50 in the assay with A549 is > 100 µM (inactive); with ACHN, > 100 µM (inactive); in the assay on EKVX it was > 100 µM (inactive); in the assay with HCT-15 it was more than 100 µM; with HL-60, > 100 µM (inactive); in the assay on IGROV-1, > 100 µM (inactive). In addition, the GI50 in the assay with KM12, in the assay on MOLT-4, with Malme-3M, in the assay on NCI-H23, in the assay on NCI-H460 and in the assay on OVCAR-8 was > 100 µM (inactive) in each case. In addition, the GI50 with RPMI-8226, with SF-539, with SK-MEL-5, in the assay with SNB-75, in the assay with SW-620 and in the assay on U-251 was > 100 µM (inactive) throughout. Also, the GI50 in the assay with UACC-62 is > 100 µM (inactive).

Take `N#C[C@H](OC1OC(COC2OC(CO)C(O)C(O)C2O)C(O)C(O)C1O)c1ccccc1` (some centres undefined): the GI50 was > 250 µM (inactive) with A549; > 250 µM (inactive) in the assay with EKVX; more than 250 µM with HCT-15; 158 µM (inactive) in the assay with HL-60; > 250 µM (inactive) in the assay with IGROV-1; > 250 µM (inactive) in the assay with KM12. Besides, the GI50 is 158 µM (inactive) in the assay on MOLT-4; > 250 µM (inactive) in the assay on Malme-3M; > 250 µM (inactive) in the assay on NCI-H23; > 250 µM (inactive) with NCI-H460; > 250 µM (inactive) with OVCAR-8; > 250 µM (inactive) in the assay with RPMI-8226. For the same molecule, the GI50 in the assay on SF-539 was > 214 µM (inactive); in the assay with SK-MEL-28 it was > 250 µM (inactive); in the assay on SK-MEL-5, > 250 µM (inactive); in the assay with SNB-75, > 250 µM (inactive); in the assay with SW-620 it was > 250 µM (inactive); in the assay on U-251, > 250 µM (inactive). Besides, in the assay on UACC-62, the GI50 was 247 µM (inactive).

As to `C1CSCCSCSCCS1`, the GI50 is > 100 µM (inactive) in the assay on A549; > 100 µM (inactive) in the assay with ACHN; > 100 µM (inactive) in the assay on EKVX; more than 100 µM in the assay on HCT-15; > 100 µM (inactive) with IGROV-1; > 100 µM (inactive) in the assay with KM12. Moreover, the GI50 in the assay on NCI-H23, in the assay with NCI-H460, in the assay with OVCAR-8, with SF-539, in the assay on SK-MEL-28 and in the assay on SK-MEL-5 was > 100 µM (inactive) each time. Further, the GI50 was 48.3 µM (inactive) in the assay with SNB-75, > 100 µM (inactive) in the assay on SW-620, > 100 µM (inactive) in the assay on U-251 and > 100 µM (inactive) with UACC-62.

Regarding `COc1ccc(-c2nc3ccc([N+](=O)[O-])cc3c(=O)[nH]2)cc1`, the GI50 was 53.2 µM (inactive) in the assay on A549; 66.1 µM (inactive) in the assay with EKVX; more than 100 µM with HCT-15; > 100 µM (inactive) in the assay on HL-60; 25.1 µM (inactive) in the assay on IGROV-1; > 100 µM (inactive) in the assay on KM12. The GI50 with MOLT-4 was > 100 µM (inactive); in the assay on NCI-H23 it was 29.3 µM (inactive); in the assay on NCI-H460, > 80 µM (inactive); in the assay on OVCAR-8, 21.1 µM (inactive); with RPMI-8226 it was > 61.4 µM (inactive); in the assay on SF-539, 14.5 µM (inactive). Moreover, the GI50 in the assay on SK-MEL-28 is > 100 µM (inactive); with SK-MEL-5, > 100 µM (inactive); with SNB-75 it was 12.7 µM (inactive); in the assay with SW-620, > 100 µM (inactive); in the assay with U-251, 24.6 µM (inactive); with UACC-62, 37.7 µM (inactive).

`O=c1cccccc1NCCCCCCCCNc1cccccc1=O`: the GI50 is 39.9 µM (inactive) in the assay on A549; 3.33 µM (inactive) with ACHN; 24.9 µM (inactive) in the assay with EKVX; more than 100 µM with HCT-15; 3.53 µM (inactive) in the assay with HL-60; 94.2 µM (inactive) with IGROV-1. The GI50 was > 100 µM (inactive) with KM12; 36.1 µM (inactive) in the assay with MOLT-4; > 100 µM (inactive) in the assay on Malme-3M; 6.78 µM (inactive) with NCI-H23; 85.7 µM (inactive) in the assay on NCI-H460; > 100 µM (inactive) with OVCAR-8. Also, the GI50 in the assay with RPMI-8226 was 6.56 µM (inactive); in the assay on SF-539, > 100 µM (inactive); in the assay on SNB-75, 32.4 µM (inactive); with SW-620 it was > 100 µM (inactive); with U-251 it was > 100 µM (inactive); with UACC-62 it was > 100 µM (inactive).

Consider `CC1CC[P+](c2ccccc2)(c2ccccc2)c2c1ccc1ccccc21` (centres undefined), for which the GI50 with A549 is 4.83 µM (inactive); with ACHN it was 9.62 µM (inactive); with HCT-15, 31.9 µM; in the assay on HL-60, 1.28 µM (inactive); in the assay on KM12, 1.59 µM (inactive); in the assay on MOLT-4 it was 5.66 µM (inactive). For the same molecule, the GI50 with Malme-3M was 5.96 µM (inactive); with NCI-H23 it was 1.57 µM (inactive); with NCI-H460 it was 2 µM (inactive); in the assay on OVCAR-8, 1.84 µM (inactive); in the assay with SF-539, 5.26 µM (inactive); with SK-MEL-5, 0.83 µM (active). Further, the GI50 in the assay with SNB-75 is 2.37 µM (inactive); with UACC-62, 2.51 µM (inactive).

As for `CCCCNC(=O)N/C=C1\C(=O)Oc2ccccc2C1=O`, the GI50 in the assay with A549 was 80.9 µM (inactive); in the assay with ACHN, 24.5 µM (inactive); in the assay with EKVX it was > 100 µM (inactive); with HCT-15 it was 28.8 µM; in the assay on HL-60, 22.1 µM (inactive); in the assay on IGROV-1 it was 37.1 µM (inactive). For the same molecule, the GI50 with MOLT-4 was 35.3 µM (inactive); in the assay on NCI-H23 it was 54.6 µM (inactive); in the assay with NCI-H460 it was > 100 µM (inactive); in the assay on OVCAR-8, 74.1 µM (inactive); with RPMI-8226, 55.7 µM (inactive); with SF-539, 39.4 µM (inactive). Further, the GI50 is 30.1 µM (inactive) in the assay on SK-MEL-28, > 100 µM (inactive) in the assay on SK-MEL-5, 58.7 µM (inactive) in the assay on SW-620 and 33.4 µM (inactive) with UACC-62.

Take `Cn1c(=O)c(-c2ccccc2)c(N=[N+]=[N-])c2ccccc21`: the GI50 was 67.8 µM (inactive) in the assay on A549; 30.8 µM (inactive) in the assay with ACHN; 39.4 µM in the assay with HCT-15; > 100 µM (inactive) in the assay with IGROV-1; 37.8 µM (inactive) in the assay on KM12; 20.9 µM (inactive) with MOLT-4. The GI50 was 30.9 µM (inactive) in the assay with Malme-3M; 38.7 µM (inactive) with NCI-H23; 39.4 µM (inactive) in the assay with NCI-H460; 49.3 µM (inactive) with OVCAR-8; 54 µM (inactive) with SF-539; 66.4 µM (inactive) in the assay on SK-MEL-28. The GI50 is 53.2 µM (inactive) in the assay on SK-MEL-5; 4.46 µM (inactive) in the assay with SNB-75; 48.3 µM (inactive) in the assay with SW-620; 34.8 µM (inactive) in the assay with U-251; 42.3 µM (inactive) with UACC-62.

With `CCOC(=O)N1C=NC23C(c4ccccc4)C(c4ccccc4)C12C(=O)N(C)C(=O)N3C` (centres undefined), the GI50 was > 100 µM (inactive) in the assay on A549; > 100 µM (inactive) with ACHN; > 100 µM (inactive) in the assay with EKVX; more than 100 µM with HCT-15; 56.1 µM (inactive) with HL-60; > 100 µM (inactive) in the assay on IGROV-1. The GI50 in the assay with KM12, with MOLT-4, in the assay on Malme-3M, in the assay on NCI-H23, in the assay with NCI-H460 and in the assay with OVCAR-8 was > 100 µM (inactive) throughout. Also, the GI50 is 44.2 µM (inactive) in the assay with RPMI-8226; > 100 µM (inactive) in the assay on SK-MEL-28; > 100 µM (inactive) with SK-MEL-5; > 100 µM (inactive) in the assay with SNB-75; > 100 µM (inactive) in the assay with SW-620; > 100 µM (inactive) in the assay on U-251. Further, in the assay with UACC-62, the GI50 was > 100 µM (inactive).

`O=C1CCC23CC(C=CC=C12)n1c(=O)n(-c2ccccc2)c(=O)n13` (centres undefined): the GI50 with A549 was > 63.8 µM (inactive); with EKVX it was > 100 µM (inactive); with HCT-15 it was more than 78.7 µM; in the assay on HL-60, 31 µM (inactive); in the assay on IGROV-1, > 100 µM (inactive); in the assay on KM12, > 100 µM (inactive). Also, the GI50 is 49.7 µM (inactive) in the assay with MOLT-4; > 100 µM (inactive) with Malme-3M; 99.1 µM (inactive) in the assay with NCI-H23; > 100 µM (inactive) in the assay with NCI-H460; > 100 µM (inactive) in the assay with OVCAR-8; > 100 µM (inactive) with RPMI-8226. The GI50 in the assay on SF-539 is > 100 µM (inactive); in the assay on SK-MEL-28, > 69.2 µM (inactive); in the assay with SK-MEL-5, > 87.3 µM (inactive); in the assay on SNB-75 it was > 100 µM (inactive); in the assay on SW-620, 43.2 µM (inactive); in the assay on UACC-62 it was > 100 µM (inactive).

On to `Cc1cc2c(cc1C)[n+]([O-])c(C#N)c(Cl)[n+]2[O-]`, for which the GI50 in the assay with A549 was 18.6 µM (inactive); with ACHN it was 10.5 µM (inactive); in the assay on EKVX, 6.59 µM (inactive); in the assay with HCT-15, 4.35 µM; in the assay with HL-60, 7.78 µM (inactive); in the assay on IGROV-1, 10.6 µM (inactive). Further, the GI50 with MOLT-4 is 5.05 µM (inactive); in the assay on Malme-3M, 12.9 µM (inactive); in the assay on NCI-H23, 11.7 µM (inactive); in the assay on NCI-H460 it was 11.7 µM (inactive); with OVCAR-8 it was 15.3 µM (inactive); with RPMI-8226, 12.3 µM (inactive). Moreover, the GI50 was 14.3 µM (inactive) in the assay on SF-539; 14.1 µM (inactive) with SK-MEL-28; 11.9 µM (inactive) with SK-MEL-5; 1.88 µM (inactive) with SNB-75; 11.7 µM (inactive) in the assay on SW-620; 13.8 µM (inactive) in the assay on U-251. Besides, the GI50 with UACC-62 is 11.7 µM (inactive).

For `CC(C)=CCC/C(C)=C/C=C/C(C)=C/C1C[C@@]2(C(O)O1)[C@H](CCCO)/C(=C(/C)C=O)CC[C@]2(C)O` (some centres undefined), the GI50 with A549 is 7.8 µM (inactive); in the assay on ACHN, 11.6 µM (inactive); in the assay on EKVX, 11.9 µM (inactive); with HCT-15, 16.3 µM; with HL-60 it was 11.1 µM (inactive); with IGROV-1 it was 22.3 µM (inactive). Besides, the GI50 with MOLT-4 was 4.95 µM (inactive); in the assay on Malme-3M, 4.59 µM (inactive); with NCI-H23, > 10 µM (inactive); in the assay with NCI-H460, 6.64 µM (inactive); with OVCAR-8 it was 22 µM (inactive); with SF-539 it was 12.2 µM (inactive). Also, the GI50 was 15.9 µM (inactive) with SK-MEL-28, 51.9 µM (inactive) with SNB-75, 10.4 µM (inactive) in the assay on SW-620 and > 10 µM (inactive) in the assay with U-251.
